# Experiments:
# [1] = tested on: SNU-16 (Gastric Carcinoma), FGFR2 amplification; assay: Cancer cell viability assay (Cell Titer-Glo), SNU-16; type: cell-based; conditions: Homo sapiens, SNU-16 cells, 72 hours, read-out: SNU16 FGFR2 (IC50 nM)
# Summary of the method: (§1)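 Cells seeded at 10,000/well in RPMI1640 with 10% FBS, then exposed 72 h at 37° C. to a 9-point 10-fold dilution series from 30 μM, in triplicate. Viability read as ATP luminescence (CellTiter-Glo 2.0) as percent of DMSO control; IC50 from 4-parameter sigmoidal fit.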
# FGFR2 = molecular target: T1, FGFR2 (Homo sapiens, UniProt P21802); assay: Kinase binding assay (kinase-tagged T7 phage, affinity beads, qPCR readout), FGFR2; conditions: FGFR binding data
# T1 construct: made in house; host or cells: E. coli derived from BL21, infected with T7 phage
# Summary of the method: (§2)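 Phage lysate kinase + liganded magnetic beads + compound, 11-pt 3-fold series, 0.9% DMSO; 1 h RT shaking. Wash, elute 30 min with 0.5 μM non-biotinylated ligand; qPCR readout. Hill fit, slope −1 → Kd.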
# [2] = tested on: UM-UC-14 (Bladder Cancer), FGFR3(S249C); assay: Cancer cell viability assay (Cell Titer-Glo), UM-UC-14; type: cell-based; conditions: UMUC14, UM-UC-14 cells, 72 hours
# Summary of the method: as §1
# FGFR1 = molecular target: T2, FGFR1 (Homo sapiens, UniProt P11362); assay: Kinase binding assay (kinase-tagged T7 phage, affinity beads, qPCR readout), FGFR1; conditions: FGFR binding data
# T2 construct: made in house; host or cells: E. coli derived from BL21, infected with T7 phage
# Summary of the method: as §2
# [3] = tested on: KG-1 (Acute Myeloid Leukemia), FGFR1OP2-FGFR1 fusion; assay: Cancer cell viability assay (Cell Titer-Glo), KG-1; type: cell-based; conditions: Homo sapiens, KG-1 cells, 72 hours
# Excerpt: RT112/84, UM-UC-14, SNU-16 and KG-1 Cancer Cell Line Cell Viability Assays
# To detect the change of intracellular ATP by Cell Titer-Glo@ and to evaluate the inhibitory effect of the compounds on cancer cell lines by determining the in vitro IC50 value of the compounds.
# Cell Titer-Glo@ 2.0 Luminescent cell viability assay reagent was purchased from Promega (Madison, WI). RT112/84, SNU-16, and KG-1 cell lines were purchased from American Type Culture Collection (Manassas, VA). UM-UC-14 cell line was purchased from Sigma (St. Louis, MO). RT112/84, UM-UC-14, SNU-16, and KG-1 cells were cultured in RPMI1640 media supplemented with 10% fetal bovine serum. Cultures were maintained at 37° C. in a humidified atmosphere of 5% CO2 and 95% air.
# Cell Viability Assay Procedure: Cells were plated in 96-well clear bottom/white plates (Corning #3903) at 10,000 cells/well in 100 μl of media, incubated overnight. The next day, test compound DMSO stock solutions were made at 10 mM and 2 μM final concentration. Compounds were then added to cells in a 9-dose, […] dilution series starting at 30 μM with an HP 300e Digital Dispenser (each dose was applied in triplicate). DMSO was backfilled to each well up to 301 nL total volume of test compound+DMSO, and a total of 301 nL DMSO was added to a control/no test compound well in triplicate. The cells in cell culture plates were incubated with the compounds at 37° C. and 5% CO2 for 72 hours. Then 50 μl of Cell Titer Glo 2.0 reagent was added to each well of the cell culture plates. The contents were covered from light and mixed on an orbital shaker at room temperature for 10 min. Luminescence was recorded by a Synergy H1 Microplate Reader (Biotek, Winooski, VT). Cells were assessed as a percentage of DMSO only treated control cells. Curves were plotted and IC50 values were calculated using the GraphPad Prism 8 program based on a sigmoidal dose-response equation (4 parameter).
# [4] = tested on: RT112/84 (Bladder Cancer), FGFR3-TACC3 fusion; assay: Cancer cell viability assay (Cell Titer-Glo), RT112/84; type: cell-based; conditions: Homo sapiens, RT112/84 cells, 72 hours
# Summary of the method: as §1
# FGFR3 = molecular target: T3, FGFR3 (Homo sapiens, UniProt P22607); assay: Kinase binding assay (kinase-tagged T7 phage, affinity beads, qPCR readout), FGFR3; conditions: FGFR binding data
# T3 construct: made in house; host or cells: E. coli derived from BL21, infected with T7 phage
# Summary of the method: as §2
# FGFR3 (V555M) = molecular target: T4, FGFR3 (V555M) (Homo sapiens, UniProt P22607, V555M); assay: Kinase binding assay (kinase-tagged T7 phage, affinity beads, qPCR readout), FGFR3 (V555M); conditions: FGFR binding data
# T4 construct: made in house; host or cells: E. coli derived from BL21, infected with T7 phage
# Summary of the method: as §2
# T4 sequence (P22607 23-806 V555M): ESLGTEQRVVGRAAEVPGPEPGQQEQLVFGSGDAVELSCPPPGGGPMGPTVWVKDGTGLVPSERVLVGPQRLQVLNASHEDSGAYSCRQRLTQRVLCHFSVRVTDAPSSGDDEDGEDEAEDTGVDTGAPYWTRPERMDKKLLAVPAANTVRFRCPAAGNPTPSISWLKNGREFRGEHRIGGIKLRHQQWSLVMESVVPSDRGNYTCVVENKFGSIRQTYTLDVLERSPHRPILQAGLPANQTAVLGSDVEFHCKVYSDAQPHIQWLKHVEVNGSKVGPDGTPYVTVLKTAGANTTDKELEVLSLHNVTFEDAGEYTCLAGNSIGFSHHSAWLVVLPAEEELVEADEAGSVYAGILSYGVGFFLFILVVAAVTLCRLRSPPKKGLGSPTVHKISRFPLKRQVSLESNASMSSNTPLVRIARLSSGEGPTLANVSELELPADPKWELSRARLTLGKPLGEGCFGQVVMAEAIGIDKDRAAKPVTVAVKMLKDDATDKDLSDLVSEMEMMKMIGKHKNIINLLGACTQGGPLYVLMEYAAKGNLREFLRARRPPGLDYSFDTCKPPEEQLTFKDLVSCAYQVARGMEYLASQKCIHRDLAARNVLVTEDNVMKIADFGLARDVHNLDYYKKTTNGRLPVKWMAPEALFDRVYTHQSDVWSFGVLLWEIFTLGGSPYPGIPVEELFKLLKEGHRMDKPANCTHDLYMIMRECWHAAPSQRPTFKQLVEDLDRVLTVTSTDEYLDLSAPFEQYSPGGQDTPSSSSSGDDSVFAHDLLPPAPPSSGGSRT
# T2 sequence (P11362 22-822): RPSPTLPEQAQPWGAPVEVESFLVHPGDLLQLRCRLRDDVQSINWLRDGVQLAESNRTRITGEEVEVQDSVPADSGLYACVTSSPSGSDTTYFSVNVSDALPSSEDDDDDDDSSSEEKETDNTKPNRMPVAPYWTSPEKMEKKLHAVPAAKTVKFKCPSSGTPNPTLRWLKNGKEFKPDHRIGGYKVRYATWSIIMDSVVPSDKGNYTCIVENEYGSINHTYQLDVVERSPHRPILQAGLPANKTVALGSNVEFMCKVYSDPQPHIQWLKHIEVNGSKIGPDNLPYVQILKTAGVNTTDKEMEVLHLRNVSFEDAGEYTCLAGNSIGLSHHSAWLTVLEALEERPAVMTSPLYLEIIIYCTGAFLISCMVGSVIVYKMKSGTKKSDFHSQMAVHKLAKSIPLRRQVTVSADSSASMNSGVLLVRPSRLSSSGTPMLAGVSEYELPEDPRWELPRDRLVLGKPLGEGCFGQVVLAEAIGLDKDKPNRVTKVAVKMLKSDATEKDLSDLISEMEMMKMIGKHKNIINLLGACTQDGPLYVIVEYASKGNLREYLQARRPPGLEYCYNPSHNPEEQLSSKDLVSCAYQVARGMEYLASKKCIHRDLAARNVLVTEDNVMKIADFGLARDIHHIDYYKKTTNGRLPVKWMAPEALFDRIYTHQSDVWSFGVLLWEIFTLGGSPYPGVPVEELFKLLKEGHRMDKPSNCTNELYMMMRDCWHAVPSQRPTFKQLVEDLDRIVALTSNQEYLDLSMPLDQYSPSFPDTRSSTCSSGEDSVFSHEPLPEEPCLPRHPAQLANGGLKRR
# T3 sequence (P22607 23-806): as the sequence (P22607 23-806 V555M) above, with M533V counted along it
# T1 sequence (P21802 22-821): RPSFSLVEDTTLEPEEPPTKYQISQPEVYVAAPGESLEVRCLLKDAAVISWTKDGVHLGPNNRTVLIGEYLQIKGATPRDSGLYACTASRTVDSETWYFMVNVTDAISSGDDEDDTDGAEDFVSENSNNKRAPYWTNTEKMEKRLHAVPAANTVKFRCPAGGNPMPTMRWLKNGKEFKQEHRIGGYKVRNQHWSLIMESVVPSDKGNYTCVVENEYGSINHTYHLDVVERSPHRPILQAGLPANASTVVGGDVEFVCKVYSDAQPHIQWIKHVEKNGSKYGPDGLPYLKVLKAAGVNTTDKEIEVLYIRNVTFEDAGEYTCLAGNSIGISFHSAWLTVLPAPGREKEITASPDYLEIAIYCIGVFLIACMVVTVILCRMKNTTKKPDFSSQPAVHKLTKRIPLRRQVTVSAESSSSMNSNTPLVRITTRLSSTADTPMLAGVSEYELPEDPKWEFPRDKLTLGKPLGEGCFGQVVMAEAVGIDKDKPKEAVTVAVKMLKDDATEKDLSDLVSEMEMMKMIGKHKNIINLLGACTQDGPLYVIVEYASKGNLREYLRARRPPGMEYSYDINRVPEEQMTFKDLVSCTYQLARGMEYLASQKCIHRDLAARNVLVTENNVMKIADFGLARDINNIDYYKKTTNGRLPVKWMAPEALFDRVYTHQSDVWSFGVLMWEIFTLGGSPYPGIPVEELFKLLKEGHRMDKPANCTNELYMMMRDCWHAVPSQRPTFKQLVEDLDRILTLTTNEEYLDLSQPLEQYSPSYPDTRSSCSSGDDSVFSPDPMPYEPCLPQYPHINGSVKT
Structure (SMILES),IC50 [1] [nM],Kd (FGFR2) [nM],IC50 [2] [nM],Kd (FGFR1) [nM],IC50 [3] [nM],IC50 [4] [nM],Kd (FGFR3) [nM],Kd (FGFR3 (V555M)) [nM]
"C=CC(=O)Nc1ccc2c(-c3nc(Nc4cnn(C)c4)ncc3Cl)cn(C)c2c1 [Example 30, N-[3-[5-Chloro-2-[(1-methylpyrazol-4-yl)amino]pyrimidin-4-yl]-1-methyl-indol-6-yl]prop-2-enamide]",–,0.1 to 100,0.1 to 100,0.1 to 100,0.1 to 100,0.1 to 100,0.1 to 100,0.1 to 100
"C=CC(=O)Nc1ccc2c(c1)c(C)cn2-c1nc(Nc2ccc(N3CCOCC3)cc2)ncc1F [Example 67, N-[1-[5-Fluoro-2-(4-morpholino-anilino)pyrimidin-4-yl]-3-methyl-indol-5-yl]prop-2-enamide]",–,0.1 to 100,0.1 to 100,0.1 to 100,0.1 to 100,0.1 to 100,0.1 to 100,0.1 to 100
"C=CC(=O)Nc1ccc2c(c1)c(C)cn2-c1nc(Nc2ccc(OC)c(OC)c2)ncc1Cl [Example 23, N-[1-[5-chloro-2-(3,4-dimethoxyanilino)pyrimidin-4-yl]-3-methyl-indol-5-yl]prop-2-enamide]",–,0.1 to 100,0.1 to 100,0.1 to 100,0.1 to 100,0.1 to 100,0.1 to 100,0.1 to 100
"C=CC(=O)Nc1ccc2c(-c3ccnc(Nc4cnn(CCO)c4)n3)cn(C)c2c1 [Example 106, N-[3-[2-[[1-(2-hydroxyethyl)pyrazol-4-yl]amino]pyrimidin-4-yl]-1-methyl-indol-6-yl]prop-2-enamide]",0.1 to 100,0.1 to 100,0.1 to 100,0.1 to 100,0.1 to 100,0.1 to 100,0.1 to 100,0.1 to 100
"C=CC(=O)Nc1ccc2c(-c3nc(Nc4ccc(N5CCOCC5)cc4)ncc3Cl)cn(C)c2c1 [Example 27, N-[3-[5-chloro-2-(4-morpholinoanilino)pyrimidin-4-yl]-1-methyl-indol-6-yl]prop-2-enamide]",–,0.1 to 100,0.1 to 100,0.1 to 100,0.1 to 100,0.1 to 100,0.1 to 100,0.1 to 100
"C=CC(=O)Nc1ccc2c(c1)c(C)cn2-c1nc(Nc2cnn(C3CCN(C4COC4)CC3)c2)ncc1Cl [Example 34, N-[1-[5-Chloro-2-[[1-[1-(oxetan-3-yl)-4-piperidyl]pyrazol-4-yl]amino]pyrimidin-4-yl]-3-methyl-indol-5-yl]prop-2-enamide]",–,0.1 to 100,0.1 to 100,0.1 to 100,0.1 to 100,0.1 to 100,0.1 to 100,0.1 to 100
"C=CC(=O)Nc1ccc2c(c1)c(C)cn2-c1nc(Nc2cn(C)cn2)ncc1Cl [Example 28, N-[1-[5-chloro-2-[(1-methylimidazol-4-yl)amino]pyrimidin-4-yl]-3-methyl-indol-5-yl]prop-2-enamide]",–,0.1 to 100,0.1 to 100,0.1 to 100,0.1 to 100,> 1000,0.1 to 100,0.1 to 100
"C=CC(=O)Nc1ccc2c(ccn2-c2nc(Nc3cnn(C)c3)ncc2Cl)c1 [Example 2, N-[1-[5-chloro-2-[(1-methylpyrazol-4-yl)amino]pyrimidin-4-yl]indol-5-yl]prop-2-enamide]",–,0.1 to 100,0.1 to 100,0.1 to 100,0.1 to 100,0.1 to 100,0.1 to 100,0.1 to 100
"C=CC(=O)Nc1ccc2c(c1)c(C)cn2-c1nc(Nc2ccnn2C)ncc1C [Example 49, N-[3-methyl-1-[5-methyl-2-[(2-methylpyrazol-3-yl)amino]-pyrimidin-4-yl]indol-5-yl]prop-2-enamide]",0.1 to 100,0.1 to 100,0.1 to 100,100 to 250,0.1 to 100,0.1 to 100,0.1 to 100,0.1 to 100
"C=CC(=O)Nc1ccc2c(c1)c(C)cn2-c1nc(Nc2cnn(C)c2)ncc1F [Example 61, N-[1-[5-fluoro-2-[(1-methylpyrazol-4-yl)amino]pyrimidin-4-yl]-3-methyl-indol-5-yl]prop-2-enamide]",0.1 to 100,0.1 to 100,0.1 to 100,0.1 to 100,0.1 to 100,0.1 to 100,0.1 to 100,0.1 to 100
"C=CC(=O)Nc1ccc2c(c1)c(C)cn2-c1nc(Nc2cnn(C3CCN(CC)CC3)c2)ncc1Cl [Example 42, N-[1-[5-chloro-2-[[1-(1-ethyl-4-piperidyl)pyrazol-4-yl]amino]-pyrimidin-4-yl]-3-methyl-indol-5-yl]prop-2-enamide]",–,0.1 to 100,0.1 to 100,0.1 to 100,0.1 to 100,0.1 to 100,0.1 to 100,0.1 to 100
"C=CC(=O)Nc1ccc2c(c1)c(C)cn2-c1nc(Nc2cnn(C)c2)ncc1C [Example 8, N-[3-Methyl-1-[5-methyl-2-[(1-methylpyrazol-4-yl)amino]pyrimidin-4-yl]indol-5-yl]prop-2-enamide]",–,0.1 to 100,0.1 to 100,0.1 to 100,0.1 to 100,0.1 to 100,0.1 to 100,0.1 to 100

# The next lines start with the values.
IC50 [1] [nM],Kd (FGFR2) [nM],IC50 [2] [nM],Kd (FGFR1) [nM],IC50 [3] [nM],IC50 [4] [nM],Kd (FGFR3) [nM],Kd (FGFR3 (V555M)) [nM],Structure (SMILES)
0.1 to 100,0.1 to 100,0.1 to 100,0.1 to 100,0.1 to 100,0.1 to 100,0.1 to 100,0.1 to 100,"C=CC(=O)Nc1ccc2c(c1)c(C)cn2-c1ccnc(Nc2ccc(N3CCOCC3)cc2)n1 [Example 54, N-[3-Methyl-1-[2-(4-morpholinoanilino)pyrimidin-4-yl]indol-5-yl]prop-2-enamide]"
0.1 to 100,0.1 to 100,0.1 to 100,0.1 to 100,0.1 to 100,0.1 to 100,0.1 to 100,0.1 to 100,"C=CC(=O)Nc1ccc2c(c1)c(C)cn2-c1nc(Nc2cc(C)nn2C)ncc1C [Example 64, N-[1-[2-[(2,5-dimethylpyrazol-3-yl)amino]-5-methyl-pyrimidin-4-yl]-3-methyl-indol-5-yl]prop-2-enamide]"
–,0.1 to 100,0.1 to 100,0.1 to 100,0.1 to 100,0.1 to 100,0.1 to 100,0.1 to 100,"C=CC(=O)Nc1ccc2c(c1)c(C)cn2-c1nc(Nc2cnn(C)c2C)ncc1Cl [Example 40, N-[1-[5-chloro-2-[(1,5-dimethylpyrazol-4-yl)amino]pyrimidin-4-yl]-3-methyl-indol-5-yl]prop-2-enamide]"
0.1 to 100,0.1 to 100,0.1 to 100,0.1 to 100,0.1 to 100,0.1 to 100,0.1 to 100,0.1 to 100,"C=CC(=O)Nc1ccc2c(c1)c(C)cn2-c1nc(Nc2ccc(N3CCOCC3)cc2)ncc1C [Example 44, N-[3-methyl-1-[5-methyl-2-(4-morpholinoanilino)pyrimidin-4-yl]indol-5-yl]prop-2-enamide]"
–,0.1 to 100,0.1 to 100,0.1 to 100,0.1 to 100,0.1 to 100,0.1 to 100,0.1 to 100,"C=CC(=O)Nc1ccc2c(c1)c(C)cn2-c1nc(Nc2ccnn2C)ncc1Cl [Example 55, N-[1-[5-chloro-2-[(2-methylpyrazol-3-yl)amino]pyrimidin-4-yl]-3-methyl-indol-5-yl]prop-2-enamide]"

# — patent US20240190849A1, “AMINOPYRIMIDINE COMPOUNDS AND METHODS OF THEIR USE” (TYRA BIOSCIENCES, INC., priority 2021, published 2024)
